18 compounds from patent US20240109917A1 (ACTELION PHARMACEUTICALS LTD, priority 2020, published 2024) can be followed below.

The IC50 is the midpoint of a concentration-inhibition curve.

The target of assay [1] is VEGFR2, unphosphorylated (Homo sapiens (Human), UniProt P35968). As to the kind of experiment: VEGFR ADP GLO Assay. The format is biochemical. On the technique in general: ADP-Glo first removes unused ATP, then detects ADP through luciferase.
For assay [2], the target named is Tb-labeled inactive PDGFRβ (Homo sapiens (Human), UniProt P09619). The assay is described as follows: PDGFRβ LanthaScreen Assay. The format is binding. Particulars: read-out: PDGFR Lantha IC50. (Time-resolved FRET reads energy transfer from a long-lived donor to a nearby acceptor.)
Sequence of Tb-labeled inactive PDGFRβ (P09619 33-1106): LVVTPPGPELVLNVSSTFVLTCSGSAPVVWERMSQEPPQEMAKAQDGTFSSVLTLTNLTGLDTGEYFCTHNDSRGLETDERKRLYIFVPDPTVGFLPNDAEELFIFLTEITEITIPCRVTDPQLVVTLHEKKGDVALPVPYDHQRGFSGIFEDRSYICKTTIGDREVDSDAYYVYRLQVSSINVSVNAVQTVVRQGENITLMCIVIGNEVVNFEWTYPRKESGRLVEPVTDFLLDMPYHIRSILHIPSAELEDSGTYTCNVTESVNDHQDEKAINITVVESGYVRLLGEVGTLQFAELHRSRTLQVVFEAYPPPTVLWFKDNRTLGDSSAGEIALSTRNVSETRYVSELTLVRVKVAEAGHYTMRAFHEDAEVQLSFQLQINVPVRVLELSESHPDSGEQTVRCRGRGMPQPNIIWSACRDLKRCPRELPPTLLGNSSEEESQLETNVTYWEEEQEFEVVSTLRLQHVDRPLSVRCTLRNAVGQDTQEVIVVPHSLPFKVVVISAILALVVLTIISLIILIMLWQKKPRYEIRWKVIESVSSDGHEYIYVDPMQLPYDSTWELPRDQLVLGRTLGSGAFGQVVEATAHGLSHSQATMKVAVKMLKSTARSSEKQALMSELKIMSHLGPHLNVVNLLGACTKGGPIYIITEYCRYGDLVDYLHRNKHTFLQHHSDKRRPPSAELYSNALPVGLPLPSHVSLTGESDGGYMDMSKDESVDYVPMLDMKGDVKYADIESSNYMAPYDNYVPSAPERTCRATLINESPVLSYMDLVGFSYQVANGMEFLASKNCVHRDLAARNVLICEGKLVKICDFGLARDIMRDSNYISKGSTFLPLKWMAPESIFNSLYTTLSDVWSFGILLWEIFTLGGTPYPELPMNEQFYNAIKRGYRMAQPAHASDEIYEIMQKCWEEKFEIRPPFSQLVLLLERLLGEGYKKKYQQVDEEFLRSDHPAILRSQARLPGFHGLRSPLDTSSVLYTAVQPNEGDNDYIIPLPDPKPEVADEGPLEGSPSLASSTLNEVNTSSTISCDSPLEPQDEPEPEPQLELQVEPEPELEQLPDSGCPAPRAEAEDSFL

Sequence of VEGFR2, unphosphorylated (P35968 20-1356): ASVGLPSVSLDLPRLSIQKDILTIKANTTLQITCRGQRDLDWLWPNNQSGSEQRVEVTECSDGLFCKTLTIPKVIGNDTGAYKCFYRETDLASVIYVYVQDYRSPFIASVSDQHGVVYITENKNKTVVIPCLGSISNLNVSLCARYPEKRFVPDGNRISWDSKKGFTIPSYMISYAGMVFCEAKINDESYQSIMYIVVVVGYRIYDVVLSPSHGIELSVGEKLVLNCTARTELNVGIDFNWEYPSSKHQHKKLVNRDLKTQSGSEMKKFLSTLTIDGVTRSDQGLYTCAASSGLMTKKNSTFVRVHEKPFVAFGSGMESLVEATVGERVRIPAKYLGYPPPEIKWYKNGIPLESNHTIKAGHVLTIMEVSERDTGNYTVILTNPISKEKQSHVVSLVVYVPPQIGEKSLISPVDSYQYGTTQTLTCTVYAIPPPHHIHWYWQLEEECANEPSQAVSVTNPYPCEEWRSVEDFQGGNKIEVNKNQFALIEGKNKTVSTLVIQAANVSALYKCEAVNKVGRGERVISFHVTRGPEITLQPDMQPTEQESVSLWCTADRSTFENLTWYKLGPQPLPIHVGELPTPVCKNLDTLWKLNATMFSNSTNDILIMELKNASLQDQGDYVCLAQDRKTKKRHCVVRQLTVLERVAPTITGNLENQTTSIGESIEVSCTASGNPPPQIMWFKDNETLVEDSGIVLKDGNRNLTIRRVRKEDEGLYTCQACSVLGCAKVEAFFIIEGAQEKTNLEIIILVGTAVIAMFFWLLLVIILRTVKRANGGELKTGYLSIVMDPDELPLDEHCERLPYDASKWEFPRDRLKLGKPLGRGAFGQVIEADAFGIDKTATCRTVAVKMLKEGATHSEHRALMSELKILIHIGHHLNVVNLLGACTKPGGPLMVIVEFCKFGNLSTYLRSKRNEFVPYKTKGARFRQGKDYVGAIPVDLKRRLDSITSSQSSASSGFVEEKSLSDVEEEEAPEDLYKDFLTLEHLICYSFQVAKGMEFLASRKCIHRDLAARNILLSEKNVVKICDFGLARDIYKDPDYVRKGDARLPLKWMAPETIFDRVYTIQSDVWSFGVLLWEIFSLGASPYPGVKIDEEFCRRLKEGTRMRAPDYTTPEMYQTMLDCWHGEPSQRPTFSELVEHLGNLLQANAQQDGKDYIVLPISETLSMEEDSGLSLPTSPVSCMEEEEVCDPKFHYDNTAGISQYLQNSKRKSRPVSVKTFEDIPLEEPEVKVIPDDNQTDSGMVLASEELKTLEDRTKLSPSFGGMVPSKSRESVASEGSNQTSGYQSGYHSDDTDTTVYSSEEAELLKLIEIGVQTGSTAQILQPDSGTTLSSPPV

For `Cc1ncc(NC(=O)CN(C)C2CCOCC2)cc1NC(=O)c1cnn2cc(-c3cnn(CC#N)c3)sc12` [Example 299, 2-(1-(cyanomethyl)-1H-pyrazol-4-yl)-N-(2-methyl-5-(2-(methyl(tetrahydro-2H-pyran-4-yl)amino)acetamido)pyridin-3-yl)pyrazolo[5,1-b]thiazole-7-carboxamide], the IC50 was over 7500 nM in assay [1] and 6 nM in assay [2].

Take `Cc1ncc(NC(=O)CN2CC(C)(C)C2)cc1NC(=O)c1cnn2cc(-c3ccoc3)sc12` [Example 283, N-(5-(2-(3,3-dimethylazetidin-1-yl)acetamido)-2-methylpyridin-3-yl)-2-(furan-3-yl)pyrazolo[5,1-b]thiazole-7-carboxamide]: the IC50 in assay [1] was over 7500 nM; in assay [2] it was 2.2 nM.

On to `COc1ncccc1-c1cn2ncc(C(=O)Nc3cc(NC(=O)OCCN4CCCC4(C)C)cnc3C)c2s1` [Example 254, 2-(2,2-dimethylpyrrolidin-1-yl)ethyl (5-(2-(2-methoxypyridin-3-yl)pyrazolo[5,1-b]thiazole-7-carboxamido)-6-methylpyridin-3-yl)carbamate], for which the IC50 in assay [1] was over 7500 nM; in assay [2] it was 2.6 nM.

In the case of `Cc1ncc(NC(=O)CC(C)N2CCCCC2)cc1NC(=O)c1cnn2cc(-c3cnn(C)c3)sc12` (stereo not drawn) [Example 307, 2-(1-methyl-1H-pyrazol-4-yl)-N-(2-methyl-5-(3-(piperidin-1-yl)butanamido)pyridin-3-yl)pyrazolo[5,1-b]thiazole-7-carboxamide], the IC50 in assay [1] is over 7500 nM; in assay [2], 210 nM.

For `COc1ncccc1-c1cn2ncc(C(=O)Nc3cc(NC(=O)[C@@H]4C[C@H](C)CN4C)cnc3C)c2s1` [Example 317, N-(5-((2S,4S)-1,4-dimethylpyrrolidine-2-carboxamido)-2-methylpyridin-3-yl)-2-(2-methoxypyridin-3-yl)pyrazolo[5,1-b]thiazole-7-carboxamide], the IC50 is over 7500 nM in assay [1] and 2.5 nM in assay [2].

As to `Cc1ncc(NC(=O)CN2CCCC(O)C2)cc1NC(=O)c1cnn2cc(-c3cnn(C)c3)sc12` (stereo not drawn) [Example 303, N-(5-(2-(3-hydroxypiperidin-1-yl)acetamido)-2-methylpyridin-3-yl)-2-(1-methyl-1H-pyrazol-4-yl)pyrazolo[5,1-b]thiazole-7-carboxamide], the results for the IC50 in assay [1] and in assay [2] were over 7500 nM and 5.8 nM, respectively.

`Cc1ncc(NC(=O)CN2CCCC2)cc1NC(=O)c1cnn2cc(-c3cccnc3O)sc12` [Example 312, 2-(2-hydroxypyridin-3-yl)-N-(2-methyl-5-(2-(pyrrolidin-1-yl)acetamido)pyridin-3-yl)pyrazolo[5,1-b]thiazole-7-carboxamide]: the IC50 is over 7500 nM in assay [1] and 39.2 nM in assay [2].

Take `Cc1ncc(NC(=O)CN2CC(C)(C)C2)cc1NC(=O)c1cnn2cc(-c3cnn(CCO)c3)sc12` [Example 290, N-(5-(2-(3,3-dimethylazetidin-1-yl)acetamido)-2-methylpyridin-3-yl)-2-(1-(2-hydroxyethyl)-1H-pyrazol-4-yl)pyrazolo[5,1-b]thiazole-7-carboxamide]: the IC50 in assay [1] was over 7500 nM; in assay [2], 3.3 nM.

As to `Cc1ncc(NC(=O)CN2CC(C)(C)C2)cc1NC(=O)c1cnn2cc(-c3ccsc3)sc12` [Example 282, N-(5-(2-(3,3-dimethylazetidin-1-yl)acetamido)-2-methylpyridin-3-yl)-2-(thiophen-3-yl)pyrazolo[5,1-b]thiazole-7-carboxamide], the figures for the IC50 in assay [1] and in assay [2] were 2680 nM and 1.2 nM, respectively.

With `Cc1ncc(NC(=O)C2CCCCN2C(C)C)cc1NC(=O)c1cnn2cc(-c3cccnc3O)sc12` (stereo not drawn) [Example 314, 2-(2-hydroxypyridin-3-yl)-N-(5-(1-isopropylpiperidine-2-carboxamido)-2-methylpyridin-3-yl)pyrazolo[5,1-b]thiazole-7-carboxamide], the IC50 was over 7500 nM in assay [1] and 64.4 nM in assay [2].

As for `Cc1ncc(NC(=O)CN2CC(C)(C)C2)cc1NC(=O)c1cnn2cc(-c3cccc4c3cnn4C)sc12` [Example 286, N-(5-(2-(3,3-dimethylazetidin-1-yl)acetamido)-2-methylpyridin-3-yl)-2-(1-methyl-1H-indazol-4-yl)pyrazolo[5,1-b]thiazole-7-carboxamide], the IC50 was over 2500 nM in assay [1] and 1 nM in assay [2].

As for `Cc1ncc(NC(=O)CN(C)C2CCOCC2)cc1NC(=O)c1cnn2cc(-c3cnn(C4CC4)c3)sc12` [Example 294, 2-(1-cyclopropyl-1H-pyrazol-4-yl)-N-(2-methyl-5-(2-(methyl(tetrahydro-2H-pyran-4-yl)amino)acetamido)pyridin-3-yl)pyrazolo[5,1-b]thiazole-7-carboxamide], the IC50 is over 7500 nM in assay [1] and 5.1 nM in assay [2].

In the case of `Cc1ncc(NC(=O)C[C@@H]2CCCN2C(C)C)cc1NC(=O)c1cnn2cc(-c3cccnc3O)sc12` [Example 322, (S)-2-(2-hydroxypyridin-3-yl)-N-(5-(2-(1-isopropylpyrrolidin-2-yl)acetamido)-2-methylpyridin-3-yl)pyrazolo[5,1-b]thiazole-7-carboxamide], the half-inhibitory concentration (IC50) in assay [1] was over 7500 nM; in assay [2] it was 15.5 nM.

As to `Cc1ncc(NC(=O)CN2CC(C)(C)C2)cc1NC(=O)c1cnn2cc(-c3ccc(C4(O)COC4)cc3)sc12` [Example 272, N-(5-(2-(3,3-dimethylazetidin-1-yl)acetamido)-2-methylpyridin-3-yl)-2-(4-(3-hydroxyoxetan-3-yl)phenyl)pyrazolo[5,1-b]thiazole-7-carboxamide], the figures for the IC50 in assay [1] and in assay [2] were over 7500 nM and 1.4 nM, respectively.

Take `Cc1ncc(NC(=O)CN2CCCC3(COC3)C2)cc1NC(=O)c1cnn2cc(-c3cnn(C)c3)sc12` [Example 24, N-(5-(2-(2-oxa-6-azaspiro[3.5]nonan-6-yl)acetamido)-2-methylpyridin-3-yl)-2-(1-methyl-1H-pyrazol-4-yl)pyrazolo[5,1-b]thiazole-7-carboxamide]: the IC50 in assay [1] was over 7500 nM; in assay [2], 4.5 nM.

For the compound `Cc1ncc(NC(=O)CC23CCCN2CCC3)cc1NC(=O)c1cnn2cc(-c3cnn(C)c3)sc12` [Example 302, 2-(1-methyl-1H-pyrazol-4-yl)-N-(2-methyl-5-(2-(tetrahydro-1H-pyrrolizin-7a(5H)-yl)acetamido)pyridin-3-yl)pyrazolo[5,1-b]thiazole-7-carboxamide], the IC50 is over 7500 nM in assay [1] and 61.2 nM in assay [2].

On to `Cc1ncc(NC(=O)CN(C)C2CCOCC2)cc1NC(=O)c1cnn2cc(-c3cnn(C(C)C#N)c3)sc12` (stereo not drawn) [Example 297, 2-(1-(1-cyanoethyl)-1H-pyrazol-4-yl)-N-(2-methyl-5-(2-(methyl(tetrahydro-2H-pyran-4-yl)amino)acetamido)pyridin-3-yl)pyrazolo[5,1-b]thiazole-7-carboxamide], for which the IC50 in assay [1] is over 7500 nM; in assay [2] it was 8.6 nM.

For `Cc1ncc(NC(=O)CN2CC(C)(C)C2)cc1NC(=O)c1cnn2cc(-c3cnn(CC#N)c3)sc12` [Example 266, 2-(1-(cyanomethyl)-1H-pyrazol-4-yl)-N-(5-(2-(3,3-dimethylazetidin-1-yl)acetamido)-2-methylpyridin-3-yl)pyrazolo[5,1-b]thiazole-7-carboxamide], the values for the IC50 in assay [1] and in assay [2] were over 7500 nM and 11.1 nM, respectively.
